Data: patent US20250206738A1, “WRN INHIBITORS” (Nimbus Wadjet, Inc., priority 2023, published 2025)

biological target: T1, human Werner helicase (WRN, Uniprot Q14191, amino acids 517-1235 with L1074F point mutation; WRN-BV08) (Homo sapiens, UniProt Q14191, L1074F); assay: WRN (BV08) ADP-Glo assay; format: biochemical; conditions: WRN-BV08 (aa 517-1235, L1074F); read-out: ADP-Glo_hWRN_IC50
T1 construct: Uniprot Q14191, amino acids 517-1235 with L1074F point mutation; 8xHis (C, cleaved yes); TEV cleavage site (ENLYFQG) (C, cleaved yes); made in house; host or cells: Sf9 insect cells (baculovirus, pFastBac)
Excerpt: Example 2: WRN (BV08) ADP-Glo Assay Protocol
Bovine skin gelatin (BSG), dimethyl sulfoxide (DMSO), Pluronic F-127 and tris(2-carboxyethyl)phosphine hydrochloride solution (TCEP) were purchased from Sigma-Aldrich (St. Louis, MO) at the highest level of purity possible. Bicine buffer solution was purchased from Alfa Aesar (Tewksbury, MA) and compound NSC-617145 was purchased from Tocris (Minneapolis, MN). DNA duplex was synthesized at BGI (Shenzhen, China) and was composed of strand 1 with the sequence 5′-[…]-3′ (SEQ ID NO.: 1) and strand 2 with the sequence 5′-[…]-3′ (SEQ ID NO.: 2). DNA strands were annealed by heating to 95° C. for 5 minutes followed by slow cooling to room temperature. Compounds in 100% DMSO ([…]) were spotted into a 384-well white polystyrene Optiplate-384 (Perkin Elmer; Waltham, MA) assay plate using a LabCyte Echo 550 (Agilent; Santa Clara, CA). DMSO ([…]) was added to columns 12, rows A-H and column 24, rows I-P for the maximum signal control. Compound NSC-617145 ([…]) was added to columns 12, rows I-P and 24, rows A-H for the minimum signal control (100% inhibition). Compounds/DMSO were preincubated for 15 minutes at 25° C. with […] 2×WRN (BV08), prepared as described below, in assay buffer containing 20 mM Bicine (pH=7.5), 1 mM MgCl2, 10 mM KCl, 0.1% Pluronic F-127, 0.005% BSG, 1 mM TCEP. The reaction was initiated by the addition of […] 2× substrate mixture in assay buffer and incubated for 60 minutes at 25° C. The final concentrations of the assay components were 0.15 nM WRN, […], and 0.1 nM DNA duplex. The final DMSO concentration was 1% and the reference compound concentration (NSC-617145) used for the minimal signal control was […]. The reaction was stopped by the addition of the ADP-Glo Kit components (Promega; Madison, WI) as directed and the relative luminescence units (RLU) were read on an Envision 2104 (Perkin Elmer; Waltham, MA).
% Inhibition Calculation:
Where RLU=relative luminescence units, sample=signal in sample well, and MIN and MAX are the respective minimum and maximum signal controls.
Four-Parameter IC50 Fit Equation:
Where top and bottom are normally allowed to float but may be fixed at 100 or 0 respectively in a 3-parameter fit. Y is the % inhibition and X is the compound concentration.
Molecular Biology and virus production. The DNA encoding human Werner helicase (Uniprot Q14191, amino acids 517-1235 with L1074F point mutation) was generated with codon-optimization for […] expression and subcloned into the pFastBac vector with a TEV cleavable 8×His tag (SEQ ID NO: 5) (WRN—BV08). The baculovirus from the expression plasmid WRN—BV08 was generated from transfection and amplification following the manufacturer's instructions.
Sf9 cells grown in SF900II media were infected with 1:200 WRN—BV08 P2 virus and incubated for protein expression for 72 h at 27° C. The WRN protein was purified using the following protocol. The cell pellets were thawed and resuspended in buffer A (50 mM Tris, pH 7.5, 500 mM NaCl, 1 mM TCEP, 10% Glycerol) supplemented with 0.5% CHAPS, 1 mM PMSF, 1 μg/ml Leupeptin, 1 μg/ml Pepstatin, and the Pierce Universal Nuclease and cocktail tablet. Cleared lysates were loaded onto a Ni Sepharose™ excel column and washed with buffer A and bound protein was eluted with buffer A supplemented with 300 mM imidazole. The eluted protein was dialyzed against buffer A and digested by His-tagged TEV (1:5 ratio) overnight at 4° C. ZnCl2 was added into the sample at final 15 μM before loading onto a second Ni Sepharose™ excel column. Untagged WRN protein was eluted from the column with buffer A supplemented with 20 mM imidazole, dialyzed overnight into buffer B (50 mM Tris, pH 7.5, 1 mM TCEP, 10% Glycerol) supplemented with 150 mM NaCl and loaded onto a Heparin column. Proteins were eluted with a step gradient of buffer B supplemented with 150 mM, 200 mM, 300 mM and 500 mM NaCl. […]

T1 sequence (Q14191 with tags, fused parts or gaps L1074F): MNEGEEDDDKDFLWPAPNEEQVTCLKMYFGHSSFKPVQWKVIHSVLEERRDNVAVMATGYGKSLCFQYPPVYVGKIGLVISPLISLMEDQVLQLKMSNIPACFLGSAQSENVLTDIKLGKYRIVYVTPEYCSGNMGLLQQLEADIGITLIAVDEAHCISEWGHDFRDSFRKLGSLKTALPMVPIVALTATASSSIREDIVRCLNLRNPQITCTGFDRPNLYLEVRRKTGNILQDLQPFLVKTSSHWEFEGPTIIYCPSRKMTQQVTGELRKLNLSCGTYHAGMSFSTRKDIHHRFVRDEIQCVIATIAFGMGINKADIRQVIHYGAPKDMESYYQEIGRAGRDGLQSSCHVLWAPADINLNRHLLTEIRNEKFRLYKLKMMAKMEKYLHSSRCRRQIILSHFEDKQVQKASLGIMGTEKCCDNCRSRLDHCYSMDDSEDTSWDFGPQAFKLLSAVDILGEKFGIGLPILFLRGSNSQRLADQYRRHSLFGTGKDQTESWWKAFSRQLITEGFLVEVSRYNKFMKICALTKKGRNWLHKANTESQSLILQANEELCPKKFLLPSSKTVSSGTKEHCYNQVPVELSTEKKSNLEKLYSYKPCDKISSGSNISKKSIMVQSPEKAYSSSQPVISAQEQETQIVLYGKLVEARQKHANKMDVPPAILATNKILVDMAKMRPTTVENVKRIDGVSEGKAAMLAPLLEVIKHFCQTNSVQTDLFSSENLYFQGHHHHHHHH

IC50 | Compound
5 to 50 nM | CCc1c(N2CCN(C(=O)c3ncnc(C)c3O)[C@H]3CC[C@@H]32)c(=O)c2nn(-c3ccn(C4CC4)n3)nc2n1CC(=O)NC12CC(C(C)C)(C1)C2 [I-78, 2-[2-(1-cyclopropyl-1H-pyrazol-3-yl)-5-ethyl-6-[(1S,6S)-5-(5-hydroxy-6-methylpyrimidine-4-carbonyl)-2,5-diazabicyclo[4.2.0]octan-2-yl]-7-oxo-2H,4H,7H-[1,2,3]triazolo[4,5-b]pyridin-4-yl]-N-[3-(propan-2-yl)bicyclo[1.1.1]pentan-1-yl]acetamide]
≤ 5 nM | CCc1c(N2CCN(C(=O)c3nocc3O)[C@H]3CC[C@@H]32)c(=O)c2nn(C3=CCOCC3)nc2n1CC(=O)NC12CC(C(C)C)(C1)C2 [I-161, 2-[2-(3,6-dihydro-2H-pyran-4-yl)-5-ethyl-6-[(1S,6S)-5-(4-hydroxy-1,2-oxazole-3-carbonyl)-2,5-diazabicyclo[4.2.0]octan-2-yl]-7-oxo-2H,4H,7H-[1,2,3]triazolo[4,5-b]pyridin-4-yl]-N-[3-(propan-2-yl)bicyclo[1.1.1]pentan-1-yl]acetamide]
5 to 50 nM | CCc1c(N2CCN(C(=O)c3ncnc(C)c3O)[C@H]3CC[C@@H]32)c(=O)c2nn(C3=CCC(OC)CC3)nc2n1CC(=O)NC12CC(C3CC3)(C1)C2 (stereo partly drawn) [I-163, N-{3-cyclopropylbicyclo[1.1.1]pentan-1-yl}-2-{5-ethyl-6-[(1S,6S)-5-(5-hydroxy-6-methylpyrimidine-4-carbonyl)-2,5-diazabicyclo[4.2.0]octan-2-yl]-2-(4-methoxycyclohex-1-en-1-yl)-7-oxo-2H,4H,7H-[1,2,3]triazolo[4,5-b]pyridin-4-yl}acetamide]
5 to 50 nM | CCc1c(N2CCN(C(=O)c3c(O)c(F)cc4ncoc34)[C@H]3CC[C@@H]32)c(=O)c2nn(C3=CCOCC3)nc2n1CC(=O)NC12CC(C3CC3)(C1)C2 [I-182, N-{3-cyclopropylbicyclo[1.1.1]pentan-1-yl}-2-[2-(3,6-dihydro-2H-pyran-4-yl)-5-ethyl-6-[(1S,6S)-5-(5-fluoro-6-hydroxy-1,3-benzoxazole-7-carbonyl)-2,5-diazabicyclo[4.2.0]octan-2-yl]-7-oxo-2H,4H,7H-[1,2,3]triazolo[4,5-b]pyridin-4-yl]acetamide]
> 500 nM | CCc1c(N2CCN(C(=O)c3ncc4c(c3O)CCO4)CC2)c(=O)n2nc(C3=CCOCC3)nc2n1CC(=O)NC12CC(OC)(C1)C2 [I-12, 2-(2-(3,6-dihydro-2H-pyran-4-yl)-5-ethyl-6-(4-(4-hydroxy-2,3-dihydrofuro[2,3-c]pyridine-5-carbonyl)piperazin-1-yl)-7-oxo-[1,2,4]triazolo[1,5-a]pyrimidin-4(7H)-yl)-N-(3-methoxybicyclo[1.1.1]pentan-1-yl)acetamide]
5 to 50 nM | CCc1c(N2CCN(C(=O)c3c(COC)cccc3OC)[C@H]3CC[C@@H]32)c(=O)c2nn(C3=CCOCC3)nc2n1CC(=O)NC12CC(C3CC3)(C1)C2 [I-199, N-{3-cyclopropylbicyclo[1.1.1]pentan-1-yl}-2-[2-(3,6-dihydro-2H-pyran-4-yl)-5-ethyl-6-[(1S,6S)-5-[2-methoxy-6-(methoxymethyl)benzoyl]-2,5-diazabicyclo[4.2.0]octan-2-yl]-7-oxo-2H,4H,7H-[1,2,3]triazolo[4,5-b]pyridin-4-yl]acetamide]
5 to 50 nM | CCc1c(N2CCN(C(=O)c3ncnc(C)c3O)[C@H]3CC[C@@H]32)c(=O)c2nn(-c3ccnc(C(F)(F)F)c3)nc2n1CC(=O)NC12CC(C3CC3)(C1)C2 [I-165, N-{3-cyclopropylbicyclo[1.1.1]pentan-1-yl}-2-{5-ethyl-6-[(1S,6S)-5-(5-hydroxy-6-methylpyrimidine-4-carbonyl)-2,5-diazabicyclo[4.2.0]octan-2-yl]-7-oxo-2-[2-(trifluoromethyl)pyridin-4-yl]-2H,4H,7H-[1,2,3]triazolo[4,5-b]pyridin-4-yl}acetamide]
> 500 nM | CCc1c(N2CCN(C(=O)c3ncc4c(c3O)CCO4)CC2)c(=O)n2nc(C3=CCOCC3)nc2n1CC(=O)NC12CC(F)(C1)C2 [I-6, 2-(2-(3,6-dihydro-2H-pyran-4-yl)-5-ethyl-6-(4-(4-hydroxy-2,3-dihydrofuro[2,3-c]pyridine-5-carbonyl)piperazin-1-yl)-7-oxo-[1,2,4]triazolo[1,5-a]pyrimidin-4(7H)-yl)-N-(3-fluorobicyclo[1.1.1]pentan-1-yl)acetamide]
5 to 50 nM | CCc1c(N2CCN(C(=O)c3ncnc(C)c3O)[C@H]3CC[C@@H]32)c(=O)c2nn(C3=CCOCC3)nc2n1CC(=O)NC1CC2(CCC2)C1 [I-185, 2-[2-(3,6-dihydro-2H-pyran-4-yl)-5-ethyl-6-[(1S,6S)-5-(5-hydroxy-6-methylpyrimidine-4-carbonyl)-2,5-diazabicyclo[4.2.0]octan-2-yl]-7-oxo-2H,4H,7H-[1,2,3]triazolo[4,5-b]pyridin-4-yl]-N-{spiro[3.3]heptan-2-yl}acetamide]
50 to 100 nM | CCc1c(N2CCN(C(=O)c3ncc4c(c3O)CCO4)CC2)c(=O)n2nc(C3=CCOCC3)nc2n1CC(=O)NC12CC(C)(C1)C2 [I-5, 2-(2-(3,6-dihydro-2H-pyran-4-yl)-5-ethyl-6-(4-(4-hydroxy-2,3-dihydrofuro[2,3-c]pyridine-5-carbonyl)piperazin-1-yl)-7-oxo-[1,2,4]triazolo[1,5-a]pyrimidin-4(7H)-yl)-N-(3-methylbicyclo[1.1.1]pentan-1-yl)acetamide]
5 to 50 nM | CCc1c(N2CCN(C(=O)c3ncnc(C)c3O)[C@H]3CC[C@@H]32)c(=O)c2nn(C3=CCOCC3)nc2n1CC(=O)NC12CC(C(C)(C)C)(C1)C2 [I-184, N-{3-tert-butylbicyclo[1.1.1]pentan-1-yl}-2-[2-(3,6-dihydro-2H-pyran-4-yl)-5-ethyl-6-[(1S,6S)-5-(5-hydroxy-6-methylpyrimidine-4-carbonyl)-2,5-diazabicyclo[4.2.0]octan-2-yl]-7-oxo-2H,4H,7H-[1,2,3]triazolo[4,5-b]pyridin-4-yl]acetamide]
> 500 nM | CCc1c(N2CCN(C(=O)c3c(OC)ncc(C)c3O)CC2)c(=O)c2nn(-c3ccnc(OC)c3)nc2n1CC(=O)NC12CC(N3CCCC3)(C1)C2 [I-126, 2-{5-ethyl-6-[4-(4-hydroxy-2-methoxy-5-methylpyridine-3-carbonyl)piperazin-1-yl]-2-(2-methoxypyridin-4-yl)-7-oxo-2H,4H,7H-[1,2,3]triazolo[4,5-b]pyridin-4-yl}-N-[3-(pyrrolidin-1-yl)bicyclo[1.1.1]pentan-1-yl]acetamide]
≤ 5 nM | CCc1c(N2CCN(C(=O)c3ncnc(C)c3O)[C@H]3CC[C@@H]32)c(=O)c2nn(-c3ccnc(OC)c3)nc2n1CC(=O)NC12CC(C3CCC3)(C1)C2 [I-80, N-{3-cyclobutylbicyclo[1.1.1]pentan-1-yl}-2-{5-ethyl-6-[(1S,6S)-5-(5-hydroxy-6-methylpyrimidine-4-carbonyl)-2,5-diazabicyclo[4.2.0]octan-2-yl]-2-(2-methoxypyridin-4-yl)-7-oxo-2H,4H,7H-[1,2,3]triazolo[4,5-b]pyridin-4-yl}acetamide]
